Measurements taken from patent US7097866B2, “Composition and method to whiten and exfoliate skin” (Desert Whale Jojoba Company, priority 2002, dated 2006).

Test system: mouse B16F10 melanoma cells
Experiment: melanin content and cell pellet color of mouse B16F10 melanoma cells cultured 6 days
Type: cell-based
Design: key to Vidjual color determination of cell pellet (score 5 black to 1 white, 0 not detectable): A Vidjual score of 5 means the cell pellet was black; A Vidjual score of 1 means the cell pellet was white; A Vidjual score of 0 means the cell pellet was not detectable, i.e. it has no color at all
Conditions: Sodium lactate positive control; for Vidjual color determination of cell pellet (score 5 black to 1 white, 0 not detectable): 25 mM or 50 mM level; for total melanin content per microgram of protein: added at either 25 mM or 50 mM level

CC(O)C(=O)[O-].[Na+] (stereo not shown) [Positive Control, Sodium lactate]
Vidjual color determination of cell pellet (score 5 black to 1 white, 0 not detectable) (table row 0.5 v/v %): 3 | total melanin content per microgram of protein (table row 0.5 v/v %): 0.240 micrograms per microgram of pr | Vidjual color determination of cell pellet (score 5 black to 1 white, 0 not detectable) (table row 1.0 v/v %): 1 | total melanin content per microgram of protein (table row 1.0 v/v %): 0.107 micrograms per microgram of pr
